According to ChEMBL document CHEMBL1201862, “PubChem BioAssay data set” (2004):
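Five compound concentrations were applied to cells in 96-well plates for 48 hours; endpoints were derived by simple linear interpolation of the resulting dose-response curve. The concentration for 50% growth inhibition is given as GI50.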 Active and inactive are the calls of the source. Rule as the data show it: active = GI50 up to about 1.1 µM and inactive = higher.

Key:
Assay in all cases: DTP human tumour cell line panel, 48 h
ACHN = system: ACHN
DLD-1 = system: DLD-1
EKVX = system: EKVX
HCC 2998 = system: HCC 2998
HCT-116 = system: HCT-116
HOP-62 = system: HOP-62
IGROV-1 = system: IGROV-1
NCI-H460 = system: NCI-H460
OVCAR-3 = system: OVCAR-3
RXF 393 = system: RXF 393
SF-268 = system: SF-268
SK-MEL-28 = system: SK-MEL-28
SK-MEL-2 = system: SK-MEL-2
SNB-19 = system: SNB-19
SW-620 = system: SW-620
U-251 = system: U-251
UACC-257 = system: UACC-257
UACC-62 = system: UACC-62

Measured: GI50

O=C(O)c1ccc(C2COc3ccc(Cl)cc3C2)cc1 (configuration not stated)
inactive: ACHN > 100 µM | DLD-1 > 100 µM | EKVX > 100 µM | HCC 2998 > 100 µM | HCT-116 > 100 µM | HOP-62 > 100 µM | IGROV-1 > 100 µM | NCI-H460 > 100 µM | OVCAR-3 > 100 µM | RXF 393 > 100 µM | SF-268 > 100 µM | SK-MEL-28 > 100 µM | SK-MEL-2 > 100 µM | SNB-19 > 100 µM | SW-620 > 100 µM | U-251 > 100 µM | UACC-257 > 100 µM | UACC-62 > 100 µM

CN(C)CCNC(=O)c1cccc2ncc(-c3ccccc3)nc12
inactive: ACHN 5.35 µM | DLD-1 5.45 µM | EKVX 13.3 µM | HCC 2998 9.59 µM | HCT-116 4.26 µM | HOP-62 9.25 µM | IGROV-1 20.5 µM | NCI-H460 4.41 µM | OVCAR-3 19.5 µM | RXF 393 5.86 µM | SF-268 10.6 µM | SK-MEL-28 18.2 µM | SK-MEL-2 14.6 µM | SNB-19 17.1 µM | SW-620 5.31 µM | U-251 8.26 µM | UACC-257 14.7 µM | UACC-62 13.8 µM

CCOP1(=O)C=C(C)C(Cl)=C(C)C1 (configuration not stated)
inactive: ACHN 24.6 µM | DLD-1 25.9 µM | EKVX > 100 µM | HCC 2998 80.2 µM | HCT-116 17.2 µM | HOP-62 > 100 µM | IGROV-1 56.1 µM | NCI-H460 39.2 µM | OVCAR-3 37.3 µM | RXF 393 29.7 µM | SF-268 38.9 µM | SK-MEL-28 17.3 µM | SK-MEL-2 8.91 µM | SNB-19 > 100 µM | SW-620 21.1 µM | U-251 24.3 µM | UACC-257 23.1 µM | UACC-62 14.9 µM

CCC1(c2ccncc2)CCC(=O)NC1=O (configuration not stated) [ROGLETIMIDE]
inactive: ACHN > 100 µM | DLD-1 > 100 µM | EKVX > 100 µM | HCC 2998 > 100 µM | HCT-116 > 100 µM | HOP-62 > 100 µM | IGROV-1 > 100 µM | NCI-H460 > 100 µM | OVCAR-3 > 100 µM | RXF 393 > 100 µM | SF-268 > 100 µM | SK-MEL-28 > 100 µM | SK-MEL-2 > 100 µM | SNB-19 > 100 µM | SW-620 > 100 µM | U-251 > 100 µM | UACC-257 > 100 µM | UACC-62 > 100 µM

CN1CCC(=O)/C(=C/c2ccccc2)C1
inactive: ACHN 17.9 µM | DLD-1 6.24 µM | EKVX 23 µM | HCC 2998 10.9 µM | HCT-116 1.78 µM | HOP-62 20.6 µM | IGROV-1 16 µM | NCI-H460 16.3 µM | OVCAR-3 11.6 µM | RXF 393 13.7 µM | SF-268 17.5 µM | SK-MEL-28 18.2 µM | SK-MEL-2 20.5 µM | SNB-19 17.1 µM | SW-620 4.99 µM | U-251 6.44 µM | UACC-257 14.7 µM | UACC-62 21.9 µM

O=C(/C=C/c1ccccc1O)c1cccc2ccccc12
inactive: ACHN > 100 µM | DLD-1 37.3 µM | EKVX > 87.9 µM | HCC 2998 > 74.1 µM | HCT-116 27.6 µM | HOP-62 > 81.7 µM | IGROV-1 > 51.4 µM | NCI-H460 > 84.1 µM | OVCAR-3 30.2 µM | RXF 393 43.2 µM | SF-268 48.8 µM | SK-MEL-28 > 100 µM | SK-MEL-2 > 100 µM | SNB-19 69.2 µM | SW-620 > 28.1 µM | U-251 42.3 µM | UACC-257 > 69.5 µM | UACC-62 > 100 µM

Cc1ccccc1NC(=O)C1C(=O)N(c2ccccc2C)C(=O)/C1=N\N (configuration not stated)
inactive: ACHN > 100 µM | DLD-1 > 100 µM | EKVX > 100 µM | HCC 2998 > 100 µM | HCT-116 > 100 µM | HOP-62 > 100 µM | IGROV-1 > 100 µM | NCI-H460 > 100 µM | OVCAR-3 > 100 µM | RXF 393 > 100 µM | SF-268 > 100 µM | SK-MEL-28 > 100 µM | SK-MEL-2 > 100 µM | SNB-19 > 100 µM | SW-620 > 100 µM | U-251 > 100 µM | UACC-257 > 100 µM | UACC-62 > 100 µM

CC1=C(C(=O)Nc2ccccc2C)C(c2ccc(C3C(C(=O)Nc4ccccc4C)=CNC=C3C(=O)Nc3ccccc3C)cc2)C(C(=O)Nc2ccccc2C)=C(C)N1
inactive: ACHN 16.4 µM | DLD-1 13.6 µM | EKVX 17.9 µM | HCC 2998 17.8 µM | HCT-116 19.5 µM | HOP-62 25.4 µM | IGROV-1 18.6 µM | NCI-H460 21.4 µM | OVCAR-3 20.3 µM | RXF 393 47.2 µM | SF-268 11.4 µM | SK-MEL-28 17.9 µM | SK-MEL-2 15.7 µM | SNB-19 19.8 µM | SW-620 14.6 µM | U-251 12.2 µM | UACC-257 17.1 µM | UACC-62 12.7 µM

O=C1/C(=C/c2ccc(Br)cc2)CCC/C1=C\c1ccc(Br)cc1
inactive: ACHN 12.2 µM | DLD-1 5.04 µM | EKVX 24.2 µM | HCC 2998 2.31 µM | HCT-116 1.73 µM | HOP-62 20 µM | IGROV-1 15.3 µM | NCI-H460 10.5 µM | OVCAR-3 4.08 µM | RXF 393 5.14 µM | SF-268 17.2 µM | SK-MEL-28 2.12 µM | SK-MEL-2 20.9 µM | SNB-19 18.9 µM | SW-620 5.13 µM | U-251 7.05 µM | UACC-257 4.2 µM | UACC-62 15.1 µM

Clc1ccccc1CN1COc2c(ccc3cccnc23)C1
inactive: ACHN 3.72 µM | DLD-1 4.66 µM | EKVX 4.46 µM | HCC 2998 6.95 µM | HCT-116 3.07 µM | HOP-62 2.69 µM | IGROV-1 3.5 µM | NCI-H460 5.19 µM | OVCAR-3 3.32 µM | RXF 393 3.4 µM | SF-268 3.65 µM | SK-MEL-28 3.61 µM | SK-MEL-2 1.72 µM | SNB-19 11.8 µM | SW-620 3.42 µM | U-251 5.6 µM | UACC-257 2.72 µM | UACC-62 3.09 µM

COc1ccc2cc1Oc1ccc(cc1)CC1c3cc(c(OC)cc3CCN1C)Oc1c3c(cc4c1C(C2)N(C)CC4)OCO3 (configuration not stated)
inactive: ACHN 4.58 µM | DLD-1 17 µM | EKVX 14.9 µM | HCC 2998 11.5 µM | HCT-116 12.8 µM | HOP-62 15.5 µM | IGROV-1 15.1 µM | NCI-H460 14.2 µM | OVCAR-3 15.7 µM | RXF 393 1.83 µM | SF-268 8.36 µM | SK-MEL-28 3.29 µM | SK-MEL-2 5.2 µM | SNB-19 17.6 µM | SW-620 13.1 µM | U-251 5.14 µM | UACC-62 16.2 µM
